Measurements from patent EP3325012B1, “CINEOLE-CONTAINING COMPOSITION FOR TREATING NOSE POLYPS” (Maria Clementine Martin Klosterfrau Vertriebsgesellschaft …, priority 2015, dated 2017).

Tests used:
aktivem beta-Catenin = experiment: Western blot of active beta-catenin in nasal polyp tissue samples; assay type: cell-based, Mensch; conditions: 100 µM, 24 Stunden incubation, versus medium controls (Figur 3)
Text: Proben von Nasenpolypen wurden in PBS gewaschen und vorsichtig homogenisiert. Es wurden Zellextrakte hergestellt und unter Verwendung von Lysepuffer 16 ("Human pluripotent stem cell array" (R&D Systems)) solubilisiert. Die Proteinkonzentrationen wurden bestimmt.
Lysate von Geweben wurden durch Erhitzen über einen Zeitraum von 5 Minuten in einfachem SDS-Probenpuffer (Carl Roth GmbH, Karlsruhe, Deutschland) denaturiert. Die Proteinkonzentrationen wurden mittels des Bradford-Tests bestimmt und jeweils 30 µg Gesamtprotein wurden zur SDS-Polyacrylamid-Gel Elektrophorese eingesetzt (Mini-Protean TGX®, Any kD, BioRad, Hercules, CA, USA) und anschließend auf Nitrozellulosemembranen übertragen. Die Übertragung der Proteine wurde mittels Ponceau-Färbung kontrolliert. […]
Um die Beladungsmenge jeder Spur zu bestimmen, wurden die Nitrozellulosemembranen über Nacht bei 4 °C mit einem primären Antikörper der GAPDH (Cell Signaling Technology Inc., Massachusetts, Katalognummer: 14C10) in einer Verdünnung von 1 : 1.000 inkubiert. […] Die Pixeldichten wurden quantifiziert und mittels Fusion FX7® unter Einsatz von Bio-1D Software® dokumentiert. […]

Akt = experiment: Western blot of Akt and P-Akt in nasal polyp protein extracts; assay type: cell-based, Mensch; conditions: 100 µM; all analysed protein extracts of nasal polyps (Figur 5)
Method: Lysate von Geweben wurden durch Erhitzen über einen Zeitraum von 5 Minuten in einfachem SDS-Probenpuffer (Carl Roth GmbH, Karlsruhe, Deutschland) denaturiert. Die Proteinkonzentrationen wurden mittels des Bradford-Tests bestimmt und jeweils 30 µg Gesamtprotein wurden zur SDS-Polyacrylamid-Gel Elektrophorese eingesetzt (Mini-Protean TGX®, Any kD, BioRad, Hercules, CA, USA) und anschließend auf Nitrozellulosemembranen übertragen. Die Übertragung der Proteine wurde mittels Ponceau-Färbung kontrolliert.
Neben der Phosphorylierung an Serin-9/-21 wird die GSK-3-Aktivität auch auf dem Level seiner subzellulären Lokalisierung reguliert. GSK-3 kann zur Trennung von seinen Substraten in endolysosomale Vesikel verlagert werden, um die Kinase-Aktivität zu verringern. […] GSK-3 ist in die Regulation von zahlreichen biosynthetischen Signalwegen involviert und zahlreiche Kinasen sind in der Lage, die GSK-3-Aktivität durch Phosphorylierung an dessen aktivierenden oder hemmenden Phosphorylierungsstellen zu regulieren. Die Akt-Kinase (auch bekannt als PKB) wurde als Onkogen mit Serin/Threonin-Kinase-Aktivität identifiziert und es wurde gezeigt, dass diese in vivo einen negativen Regulator der GSK3-beta Aktivität darstellt. Akt kann durch Phosphorylierung an Serin-473 durch PDK1 aktiviert werden, wobei davon ausgegangen wird, dass PHLPP als Inhibitor von dessen Phosphorylierung fungiert. […]

[1] = tested on: allen untersuchten Zellspezies; experiment: Vitality/proliferation, summary over all cell species investigated; assay type: cell-based; conditions: 10mM
Method: Erste Vorversuche zum Einfluss von Cineol auf die Progression von Polyposis nasi et sinuum wurden durchgeführt. Hierzu wurden zunächst Einzelzellsuspensionen hergestellt und diese wurden in der Zellkultur über einen Zeitraum von 288 Stunden mit Standardmedium und mit 1mM Cineol inkubiert.
Es wurden weiterführende Untersuchungen durchgeführt zur Analyse des Einflusses von Cineol auf die Vitalität und Proliferation verschiedener permanenter Zelllinien. Hierzu wurden einerseits die zwei HNSCC-Zelllinien und des Weiteren eine Fibroblastenzelllinie verwendet. Diese wurden über einen Zeitraum von 250 Stunden mit verschiedenen Cineol-Konzentrationen kultiviert (1 mM bis 10 mM) und die Vitalität der Zellen wurde jeweils mittels eines MTT-Assays untersucht.
Hierbei zeigte sich ein ähnliches Bild wie in den vorhergegangenen Untersuchungen zum Einfluss von Cineol auf die Vitalität von Polyposis nasi et sinuum-Einzelzellsupensionen, wobei sich jedoch die permanenten Zelllinien erst zu geringfügig späteren Zeitpunkten und bei geringfügig höheren Cineol-Konzentrationen signifikant in ihrer Proliferation beeinflussen ließen. […]

[2] = tested on: permanente Zelllinien maligner Kopf-Hals-Tumoren; experiment: Cell migration test (xCELLigence); assay type: cell-based; conditions: 2 mM
Text: Um den Einfluss von Cineol auf die zelluläre Migrations-Aktivität zu untersuchen, wurden Migrations-CIM-Platten 16 (Roche, Mannheim, Deutschland), bei welchen es sich um ein durch eine poröse Membran getrenntes 2-Kammer-System handelt, entsprechend der Bedienungsanleitung des Herstellers verwendet (Roche Diagnostics). Die Zellen wandern dabei von der oberen Kammer durch die Membran und haften an den elektronischen Sensoren an der Unterseite der Membran, so dass ein Anstieg der Impedanz resultiert. Die Veränderungen werden automatisch und kontinuierlich durch das RTCA-DP-Instrument aufgezeichnet, und die Zellmigrations-Aktivität kann durch das Zell-Index-Profil überwacht werden. Vor dem Befüllen der Wells mit Zellen (60.000 Zellen/Well) wurde die Unterseite der Wells der oberen Kammer der CIM-Platte 16 mit 30 µl Collagen I ([…], Sigma, Deisenhofen, Deutschland) beschichtet. Jede Behandlungsbedingung wurde in dreifacher Ausführung gemessen.
Neben der zellulären Vitalität und Progression sowie dem Einfluss auf Apoptose und Zellzyklus hat die Anmelderin auch den Einfluss von Cineol auf das zelluläre Migrationsverhalten untersucht. […]

[3] = tested on: proinflamatorischer Zytokine; conditions: inhalation; cited from earlier work

## CC12CCC(CC1)C(C)(C)O2 [1,8-Cineol, 1,3,3-Trimethyl-2-oxabicyclo[2.2.2]octan]
Aktivem beta-Catenin
  Expressionslevel von aktivem beta-Catenin: verschwanden aktive beta-Catenin-Proteine fast vollständig
Akt
  Phosphorylierungslevel von Akt an Serin-473: nicht wesentlich beeinflusst
[1]
  zytotoxische Wirkung: deutlich zytotoxischen Wirkung
[2]
  zelluläre Migrationsaktivität: leichten Einfluss
[3]
  proinflamatorische Zytokine: deutlichen Reduktion
